From PubChem BioAssay (NCI)
“And” between values parts separate entries of the source, which are not always exact repeats. Equal entries are not always repeated.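 Five concentrations, 48 hours, 96-well plates. GI50: concentration for 50% inhibition of growth. TGI: concentration producing complete growth inhibition.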

Assays:
Assay in all cases: inhibition of tumour cell growth, NCI panel, 48 h
RXF 393 renal = tested on: RXF 393 renal
BT-549 breast = tested on: BT-549 breast
HT29 colon = tested on: HT29 colon
HL-60(TB) leukemia = tested on: HL-60(TB) leukemia
OVCAR-8 ovarian = tested on: OVCAR-8 ovarian
OVCAR-3 ovarian = tested on: OVCAR-3 ovarian
SNB-19 CNS = tested on: SNB-19 CNS
SW-620 colon = tested on: SW-620 colon
MOLT-4 leukemia = tested on: MOLT-4 leukemia
SR leukemia = tested on: SR leukemia

Row | Structure (SMILES) | TGI (RXF 393 renal) | TGI (BT-549 breast) | TGI (HT29 colon) | TGI (HL-60(TB) leukemia) | TGI (OVCAR-8 ovarian) | TGI (OVCAR-3 ovarian) | TGI (SNB-19 CNS) | TGI (SW-620 colon) | TGI (MOLT-4 leukemia) | TGI (SR leukemia) | GI50 (RXF 393 renal) | GI50 (BT-549 breast) | GI50 (HT29 colon) | GI50 (HL-60(TB) leukemia) | GI50 (OVCAR-8 ovarian) | GI50 (OVCAR-3 ovarian) | GI50 (SNB-19 CNS) | GI50 (SW-620 colon) | GI50 (MOLT-4 leukemia) | GI50 (SR leukemia)
1 | CC(NC(=O)C1(N)CCCC1)C(=O)O (configuration not stated) | > 100 µM | > 100 µM | > 100 µM | > 100 µM | > 100 µM | > 100 µM | > 100 µM | > 100 µM | > 100 µM | > 100 µM | – | – | – | – | – | – | – | – | – | –
2 | c1ccc(Oc2cnc3ccccc3n2)cc1 | > 100 µM | 68.3 µM | > 100 µM | > 100 µM | > 100 µM | > 100 µM | > 100 µM | > 100 µM | > 100 µM | > 100 µM | 31.9 µM | 12 µM | > 100 µM | 18.7 µM | > 100 µM | > 100 µM | > 100 µM | > 100 µM | 36.3 µM | 55.3 µM
3 | COc1cccc(-c2nn(C)c3sc(C(=O)NCCN4CCN(c5ccccc5F)CC4)cc23)c1 | > 100 µM | > 100 µM | 51.3 µM | > 100 µM | > 100 µM | > 100 µM | > 100 µM | > 100 µM | > 100 µM | > 100 µM | 3.17 µM | > 100 µM | 4.66 µM | 33.1 µM | 7.85 µM | 20.6 µM | 21 µM | 33.7 µM | 5.15 µM | 5.43 µM
4 | CC(=O)SC(C[N+](=O)[O-])c1ccccc1 (configuration not stated) | 4.01 µM | 5.19 µM | 4.22 µM | 18.9 µM | 26 µM | 20.7 µM | 30.9 µM | 5.6 µM | 5.36 µM | 6.85 µM | – | – | – | – | – | – | – | – | – | –
5 | Nc1ncnc2c1c(-c1ccc(Oc3ccccc3)cc1)nn2C[C@H]1SSC[C@H]1O | 4.31 µM | 6.52 µM | 1.48 µM | 0.66 µM | 3.87 µM | 0.421 µM | 20.1 µM | > 100 µM | 0.0492 µM | 0.127 µM | 1.35 µM | 2.18 µM | 0.179 µM | 0.242 µM | 1.09 µM | 0.188 µM | 0.51 µM | 0.395 µM | 0.0184 µM | 0.0289 µM
6 | O=C(/C=C/c1ccco1)c1cccc(Nc2nc(Nc3ccccc3)nc(Nc3ccccc3)n2)c1 | 8.15 µM | > 82.9 µM | > 100 µM | > 54.3 µM | > 83.2 µM | 27.1 µM | > 100 µM | > 100 µM | > 31.8 µM | > 24.1 µM | 1.36 µM | 19 µM | 17.2 µM | > 29.6 µM | 10 µM | 2.83 µM | > 100 µM | 18.2 µM | 4.34 µM | 5.01 µM
7 | CCc1cc(Cc2cc(CC)cc(C(C)(C)C)c2O)c(O)c(C(C)(C)C)c1 | 4.98 µM | 7.76 µM | 11.5 µM | > 100 µM | 12.3 µM | 5.33 µM | 11.8 µM | 7.07 µM | > 100 µM | 18.7 µM | 1.81 µM | 2.16 µM | 2.9 µM | 4.42 µM | 3.45 µM | 2.2 µM | 3.13 µM | 2.25 µM | 3.99 µM | 3.28 µM
8 | CCCCCCOc1ccc(/C=N/Nc2cc(C)nc3ccc(Br)cc23)cc1 | 2.95 µM | 3.91 µM | 3.12 µM | 3.26 µM | 4.12 µM | 3.65 µM | 3.43 µM | 3.56 µM | 3.18 µM | 1.85 µM | 1.55 µM | 1.91 µM | 1.63 µM | 1.29 µM | 2.07 µM | 1.94 µM | 1.83 µM | 1.56 µM | 1.2 µM | 0.396 µM
9 | CCOc1ccc(-n2cc(-c3ccc(N(C)C)cc3)[n+]3c2CCCCC3)cc1 | > 90.3 µM | 29.1 µM | > 24.7 µM | 1.53 µM | > 100 µM | 60.2 µM | > 100 µM | > 100 µM | 26.5 µM | 29.4 µM | 4.51 µM | 0.406 µM | 0.609 µM | 0.164 µM | 1.34 µM | 0.377 µM | 0.452 µM | 2.21 µM | 1 µM | 0.978 µM
10 | COc1ccc(-c2nn(C(=O)c3cc(OC)c(OC)c(OC)c3)c3cc(N)ccc23)cc1 | 3.98 µM | 9.56 µM | 1.13 µM | < 0.022 µM | 7.28 µM | – | > 100 µM | 23.4 µM | 23.7 µM | – | < 0.01 µM | < 0.0175 µM | < 0.0142 µM | < 0.0121 µM | < 0.0156 µM | < 0.01 µM | < 0.0171 µM | < 0.01 µM | 0.0382 µM | < 0.01 µM
11 | c1ccc2c(c1)-c1nc3ccccc3cc1C2N1CCOCC1 (configuration not stated) | > 100 µM | > 100 µM | > 100 µM | > 100 µM | > 100 µM | > 100 µM | > 100 µM | > 100 µM | > 100 µM | > 100 µM | – | – | – | – | – | – | – | – | – | –
12 | COc1ccc2nc3c(cc2c1)C(=O)CC(C(F)(F)F)C3 (configuration not stated) | 5.1 µM | > 100 µM | > 100 µM | > 46.8 µM | > 100 µM | 6.89 µM | > 100 µM | > 100 µM | > 100 µM | > 100 µM | 0.562 µM | 3.1 µM | 0.433 µM | 0.333 µM | 1.22 µM | 1.65 µM | 3.61 µM | 2.68 µM | 0.108 µM | 0.262 µM
13 | N[C@@H](Cc1ccc(N(CCCl)CCCl)cc1)C(=O)O | 47.1 µM and 32.9 µM and 69.9 µM | > 100 µM and 100 µM | > 100 µM and 235 µM | 11.6 µM and 33 µM | > 100 µM and 50.9 µM and 110 µM | 55.3 µM and 26.3 µM and 105 µM | > 100 µM and 41.6 µM and 204 µM | > 100 µM and 56.8 µM and 157 µM | 20.6 µM and 24.5 µM and 52.6 µM | 39.1 µM and 71.4 µM | 16.9 µM and 15.9 µM | 27.8 µM | 54.2 µM and 42.3 µM | 6.96 µM | 27.7 µM and 19.7 µM | 22.5 µM and 10.4 µM | 30.4 µM and 23 µM | 19.5 µM and 17.2 µM | 3.43 µM and 1.45 µM | –
